In ChEMBL document CHEMBL1201861, “Genomics of Drug Sensitity in Cancer screening data, Wellcome Trust Sanger Institute”:

Columns and labels:
[1] = tested on: HT55; assay: cells; format: functional, cell-based; settings: Homo sapiens;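 note: cell viability readout measuring growth inhibition of human HT55 cells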
Description: SANGER: Inhibition of human HT55 cell growth in a cell viability assay.

[2] = tested on: BL-41; assay: cells; format: functional, cell-based; settings: Homo sapiens;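 note: growth inhibition of human BL-41 cells, read out with a cell viability assay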
Description: SANGER: Inhibition of human BL-41 cell growth in a cell viability assay.

[3] = tested on: SIG-M5; assay: cells; format: functional, cell-based; settings: Homo sapiens;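 note: cell viability assay read-out, measuring how strongly growth of cultured human SIG-M5 cells is inhibited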
Description: SANGER: Inhibition of human SIG-M5 cell growth in a cell viability assay.

[4] = tested on: NCI-H1734; assay: cells; format: functional, cell-based; settings: Homo sapiens;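 note: growth inhibition of human NCI-H1734 cells, read out with a cell viability assay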
Description: SANGER: Inhibition of human NCI-H1734 cell growth in a cell viability assay.

[5] = tested on: HN; assay: cells; format: functional, cell-based; settings: Homo sapiens
Description: SANGER: Inhibition of human HN cell growth in a cell viability assay.

[6] = tested on: HCC1419; assay: cells; format: functional, cell-based; settings: Homo sapiens;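 note: growth inhibition of human HCC1419 cells, read out as cell viability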
Description: SANGER: Inhibition of human HCC1419 cell growth in a cell viability assay.

[7] = tested on: HT-29; assay: cells; format: functional, cell-based; settings: Homo sapiens;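 note: growth inhibition of human HT-29 cells, read out by a cell viability assay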
Description: SANGER: Inhibition of human HT-29 cell growth in a cell viability assay.

[8] = tested on: RD; assay: cells; format: functional, cell-based; settings: Homo sapiens
Description: SANGER: Inhibition of human RD cell growth in a cell viability assay.

[9] = tested on: RT-112; assay: cells; format: functional, cell-based; settings: Homo sapiens
Description: SANGER: Inhibition of human RT-112 cell growth in a cell viability assay.

[10] = tested on: SW1573; assay: cells; format: functional, cell-based; settings: Homo sapiens;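 note: growth inhibition of SW1573 cells, read out with a cell viability assay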
Description: SANGER: Inhibition of human SW1573 cell growth in a cell viability assay.

[11] = tested on: HOP-92; assay: cells; format: functional, cell-based; settings: Homo sapiens;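 note: cell viability readout, with IC50 reflecting inhibition of HOP-92 cell growth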
Description: SANGER: Inhibition of human HOP-92 cell growth in a cell viability assay.

[12] = tested on: NCI-H2405; assay: cells; format: functional, cell-based; settings: Homo sapiens;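 note: growth inhibition of the human cell line, read out with a cell viability assay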
Description: SANGER: Inhibition of human NCI-H2405 cell growth in a cell viability assay.

[13] = tested on: TCC-SUP; assay: cells; format: functional, cell-based; settings: Homo sapiens;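 note: growth inhibition of TCC-SUP cells, read out with a cell viability assay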
Description: SANGER: Inhibition of human TCCSUP cell growth in a cell viability assay.

[14] = tested on: NCI-H187; assay: cells; format: functional, cell-based; settings: Homo sapiens;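 note: growth inhibition of NCI-H187 cells, read out as cell viability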
Description: SANGER: Inhibition of human NCI-H187 cell growth in a cell viability assay.

[15] = tested on: NCI-H2141; assay: cells; format: functional, cell-based; settings: Homo sapiens;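 note: growth inhibition of human NCI-H2141 cells, read out with a cell viability assay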
Description: SANGER: Inhibition of human NCI-H2141 cell growth in a cell viability assay.

[16] = tested on: HTC-C3; assay: cells; format: functional, cell-based; settings: Homo sapiens;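 note: inhibition of cell growth, read out with a cell viability assay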
Description: SANGER: Inhibition of human HTC-C3 cell growth in a cell viability assay.

[17] = tested on: NCI-H1618; assay: cells; format: functional, cell-based; settings: Homo sapiens;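 note: growth inhibition of human NCI-H1618 cells, measured by a cell viability assay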
Description: SANGER: Inhibition of human NCI-H1618 cell growth in a cell viability assay.

[18] = tested on: DU-145; assay: cells; format: functional, cell-based; settings: Homo sapiens
Description: SANGER: Inhibition of human DU-145 cell growth in a cell viability assay.

[19] = tested on: G-401; assay: cells; format: functional, cell-based; settings: Homo sapiens
Description: SANGER: Inhibition of human G-401 cell growth in a cell viability assay.

[20] = tested on: C3A; assay: cells; format: functional, cell-based; settings: Homo sapiens;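 note: growth inhibition of C3A human cells, quantified with a cell viability readout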
Description: SANGER: Inhibition of human C3A cell growth in a cell viability assay.

[21] = tested on: MRK-nu-1; assay: cells; format: functional, cell-based; settings: Homo sapiens;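 note: cell viability assay measuring growth suppression of human MRK-nu-1 cells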
Description: SANGER: Inhibition of human MRK-nu-1 cell growth in a cell viability assay.

[22] = tested on: MDA-MB-468; assay: cells; format: functional, cell-based; settings: Homo sapiens
Description: SANGER: Inhibition of human MDA-MB-468 cell growth in a cell viability assay.

[23] = tested on: HCC2157; assay: cells; format: functional, cell-based; settings: Homo sapiens;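 note: growth inhibition of the cancer cell line, read out as cell viability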
Description: SANGER: Inhibition of human HCC2157 cell growth in a cell viability assay.

[24] = tested on: CAL-62; assay: cells; format: functional, cell-based; settings: Homo sapiens;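 note: growth inhibition of CAL-62 cells, read out with a cell viability assay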
Description: SANGER: Inhibition of human CAL-62 cell growth in a cell viability assay.

[25] = tested on: EVSA-T; assay: cells; format: functional, cell-based; settings: Homo sapiens;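 note: growth inhibition of EVSA-T cells, read out with a cell viability assay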
Description: SANGER: Inhibition of human EVSA-T cell growth in a cell viability assay.

[26] = tested on: ARH-77; assay: cells; format: functional, cell-based; settings: Homo sapiens;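 note: growth inhibition of ARH-77 cells, read out by a cell viability assay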
Description: SANGER: Inhibition of human ARH-77 cell growth in a cell viability assay.

[27] = tested on: A 172; assay: cells; format: functional, cell-based; settings: Homo sapiens;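 note: growth inhibition of A172 cells, measured with a cell viability readout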
Description: SANGER: Inhibition of human A172 cell growth in a cell viability assay.

[28] = tested on: C-33-A; assay: cells; format: functional, cell-based; settings: Homo sapiens;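 note: cell viability assay measuring growth inhibition of C-33-A cells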
Description: SANGER: Inhibition of human C-33-A cell growth in a cell viability assay.

[29] = tested on: SNU-423; assay: cells; format: functional, cell-based; settings: Homo sapiens
Description: SANGER: Inhibition of human SNU-423 cell growth in a cell viability assay.

[30] = tested on: MDA-MB-134-VI; assay: cells; format: functional, cell-based; settings: Homo sapiens
Description: SANGER: Inhibition of human MDA-MB-134-VI cell growth in a cell viability assay.

[31] = tested on: SW1088; assay: cells; format: functional, cell-based; settings: Homo sapiens;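 note: growth inhibition of human SW1088 cells, read out by a cell viability assay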
Description: SANGER: Inhibition of human SW1088 cell growth in a cell viability assay.

[32] = tested on: CAKI-1; assay: cells; format: functional, cell-based; settings: Homo sapiens;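 note: growth inhibition of CAKI-1 cells, measured by a cell viability assay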
Description: SANGER: Inhibition of human CAKI-1 cell growth in a cell viability assay.

[33] = tested on: MIA PaCa-2; assay: cells; format: functional, cell-based; settings: Homo sapiens;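 note: growth inhibition of MIA PaCa-2 cells, read out with a cell viability assay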
Description: SANGER: Inhibition of human MIA-PaCa-2 cell growth in a cell viability assay.

[34] = tested on: ME-180; assay: cells; format: functional, cell-based; settings: Homo sapiens;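 note: cell viability assay measuring growth inhibition of ME-180 cells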
Description: SANGER: Inhibition of human ME-180 cell growth in a cell viability assay.

[35] = tested on: NCI-H1755; assay: cells; format: functional, cell-based; settings: Homo sapiens;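 note: cell viability readout used to measure growth inhibition of NCI-H1755 cells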
Description: SANGER: Inhibition of human NCI-H1755 cell growth in a cell viability assay.

[36] = tested on: SNU-387; assay: cells; format: functional, cell-based; settings: Homo sapiens
Description: SANGER: Inhibition of human SNU-387 cell growth in a cell viability assay.

[37] = tested on: NCI-H2030; assay: cells; format: functional, cell-based; settings: Homo sapiens;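 note: growth inhibition of human NCI-H2030 cells, read out by a cell viability assay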
Description: SANGER: Inhibition of human NCI-H2030 cell growth in a cell viability assay.

[38] = tested on: CAL-54; assay: cells; format: functional, cell-based; settings: Homo sapiens;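 note: growth inhibition of CAL-54 cells, read out by a viability measurement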
Description: SANGER: Inhibition of human CAL-54 cell growth in a cell viability assay.

[39] = tested on: GMS-10; assay: cells; format: functional, cell-based; settings: Homo sapiens;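 note: growth inhibition of GMS-10 cells, read out as cell viability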
Description: SANGER: Inhibition of human GMS-10 cell growth in a cell viability assay.

[40] = tested on: MEL-JUSO; assay: cells; format: functional, cell-based; settings: Homo sapiens;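 note: growth inhibition of human MEL-JUSO cells, read out with a cell viability assay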
Description: SANGER: Inhibition of human MEL-JUSO cell growth in a cell viability assay.

[41] = tested on: P31-FUJ; assay: cells; format: functional, cell-based; settings: Homo sapiens;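 note: growth inhibition of P31-FUJ cells, read out with a viability assay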
Description: SANGER: Inhibition of human P31-FUJ cell growth in a cell viability assay.

[42] = tested on: SU-DHL-1; assay: SANGER: Inhibition of human SU-DHL-1 cell growth in a cell viability assay.; format: functional, cell-based
[43] = tested on: RL95-2; assay: cells; format: functional, cell-based; settings: Homo sapiens;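 note: RL95-2 growth inhibition determined through a cell viability readout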
Description: SANGER: Inhibition of human RL95-2 cell growth in a cell viability assay.

[44] = tested on: DOK; assay: cells; format: functional, cell-based; settings: Homo sapiens;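 note: cell viability assay read-out, values reflect inhibition of cell growth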
Description: SANGER: Inhibition of human DOK cell growth in a cell viability assay.

[45] = tested on: SW1417; assay: cells; format: functional, cell-based; settings: Homo sapiens;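 note: growth inhibition of human SW1417 cells, read out with a cell viability assay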
Description: SANGER: Inhibition of human SW1417 cell growth in a cell viability assay.

[46] = tested on: IGR-1; assay: cells; format: functional, cell-based; settings: Homo sapiens;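 note: growth inhibition of human IGR-1 cells, read out with a cell viability assay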
Description: SANGER: Inhibition of human IGR-1 cell growth in a cell viability assay.

[47] = tested on: SK-MEL-30; assay: cells; format: functional, cell-based; settings: Homo sapiens;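 note: growth inhibition of SK-MEL-30 cells, determined with a cell viability assay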
Description: SANGER: Inhibition of human SK-MEL-30 cell growth in a cell viability assay.

[48] = tested on: NCI-H650; assay: cells; format: functional, cell-based; settings: Homo sapiens;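 note: growth inhibition of NCI-H650 cells, read out by a viability assay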
Description: SANGER: Inhibition of human NCI-H650 cell growth in a cell viability assay.

[49] = tested on: NCI-H596; assay: cells; format: functional, cell-based; settings: Homo sapiens;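 note: growth inhibition of NCI-H596 cells, read out with a cell viability assay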
Description: SANGER: Inhibition of human NCI-H596 cell growth in a cell viability assay.

[50] = tested on: CPC-N; assay: cells; format: functional, cell-based; settings: Homo sapiens;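 note: growth inhibition of CPC-N cells, with a cell viability assay as the readout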
Description: SANGER: Inhibition of human CPC-N cell growth in a cell viability assay.

[51] = tested on: SW-620; assay: cells; format: functional, cell-based; settings: Homo sapiens;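 note: growth inhibition of human SW-620 cells, measured by a cell viability assay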
Description: SANGER: Inhibition of human SW620 cell growth in a cell viability assay.

[52] = tested on: CAL-33; assay: cells; format: functional, cell-based; settings: Homo sapiens;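 note: growth inhibition of CAL-33 cells, read out with a cell viability assay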
Description: SANGER: Inhibition of human CAL-33 cell growth in a cell viability assay.

[53] = tested on: KOSC-2; assay: cells; format: functional, cell-based; settings: Homo sapiens;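 note: growth inhibition of KOSC-2 cells, read out by a cell viability assay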
Description: SANGER: Inhibition of human KOSC-2 cell growth in a cell viability assay.

[54] = tested on: NCI-H1882; assay: cells; format: functional, cell-based; settings: Homo sapiens;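 note: growth inhibition of the cell line, determined with a viability assay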
Description: SANGER: Inhibition of human NCI-H1882 cell growth in a cell viability assay.

[55] = tested on: NCI-H1417; assay: cells; format: functional, cell-based; settings: Homo sapiens;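 note: human NCI-H1417 cells, growth inhibition determined with a cell viability readout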
Description: SANGER: Inhibition of human NCI-H1417 cell growth in a cell viability assay.

[56] = tested on: SK-HEP1; assay: cells; format: functional, cell-based, SK-HEP-1; settings: Homo sapiens;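 note: cell viability readout used to quantify reduction in proliferation of human SK-HEP-1 cells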
Description: SANGER: Inhibition of human SK-HEP-1 cell growth in a cell viability assay.

[57] = tested on: TALL-1; assay: cells; format: functional, cell-based; settings: Homo sapiens;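 note: growth inhibition of cultured human TALL-1 cells, read out by a cell viability assay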
Description: SANGER: Inhibition of human TALL-1 cell growth in a cell viability assay.

[58] = tested on: NCI-H1522; assay: cells; format: functional, cell-based; settings: Homo sapiens;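 note: growth inhibition of NCI-H1522 cells, read out with a cell viability assay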
Description: SANGER: Inhibition of human NCI-H1522 cell growth in a cell viability assay.

[59] = tested on: J82; assay: cells; format: functional, cell-based; settings: Homo sapiens;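 note: growth inhibition of J82 cells, read out with a cell viability assay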
Description: SANGER: Inhibition of human J82 cell growth in a cell viability assay.

[60] = tested on: MDA-MB-415; assay: cells; format: functional, cell-based; settings: Homo sapiens
[61] = tested on: NCI-H1792; assay: cells; format: functional, cell-based; settings: Homo sapiens;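 note: growth inhibition of human NCI-H1792 cells, read out as cell viability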
Description: SANGER: Inhibition of human NCI-H1792 cell growth in a cell viability assay.

[62] = tested on: HuCCT-1; assay: cells; format: functional, cell-based, HuCCT1; settings: Homo sapiens
Description: SANGER: Inhibition of human HuCCT1 cell growth in a cell viability assay.

O=c1[nH]c2ccccc2n1C1CCN(Cc2ccc(-c3nc4cc5[nH]cnc5cc4nc3-c3ccccc3)cc2)CC1 was tested, and the IC50 [1] was > 2560 nM, the IC50 [2] was > 2560 nM and the IC50 [3] was > 2560 nM. For the same compound, the IC50 [4] was > 2560 nM, the IC50 [5] was > 2560 nM and the IC50 [6] was 2340 nM. For the same compound, the IC50 [7] was 2430 nM, the IC50 [8] was > 2560 nM and the IC50 [9] was > 2560 nM. For the same compound, the IC50 [10] was > 2560 nM, the IC50 [11] was > 2560 nM and the IC50 [12] was > 2560 nM. The IC50 [13] was > 2560 nM, the IC50 [14] was > 2560 nM and the IC50 [15] was > 2560 nM. The IC50 [16] was > 2560 nM, the IC50 [17] was > 2560 nM and the IC50 [18] was > 2560 nM. The IC50 [19] was > 2560 nM, the IC50 [20] was > 2560 nM and the IC50 [21] was > 2560 nM. For the same compound, the IC50 [22] was > 2560 nM, the IC50 [23] was > 2560 nM and the IC50 [24] was > 2560 nM. The IC50 [25] was > 2560 nM, the IC50 [26] was > 2560 nM and the IC50 [27] was > 2560 nM. For the same compound, the IC50 [28] was > 2560 nM, the IC50 [29] was > 2560 nM and the IC50 [30] was > 2560 nM. The IC50 [31] was > 2560 nM, the IC50 [32] was > 2560 nM and the IC50 [33] was > 2560 nM. The IC50 [34] was > 2560 nM, the IC50 [35] was 1060 nM and the IC50 [36] was > 2560 nM. For the same compound, the IC50 [37] was 1940 nM, the IC50 [38] was > 2560 nM and the IC50 [39] was > 2560 nM. For the same compound, the IC50 [40] was > 2560 nM, the IC50 [41] was > 2560 nM and the IC50 [42] was > 2560 nM. The IC50 [43] was > 2560 nM, the IC50 [44] was > 2560 nM and the IC50 [45] was > 2560 nM. The IC50 [46] was > 2560 nM, the IC50 [47] was > 2560 nM and the IC50 [48] was > 2560 nM. The IC50 [49] was > 2560 nM, the IC50 [50] was > 2560 nM and the IC50 [51] was > 2560 nM. The IC50 [52] was > 2560 nM, the IC50 [53] was > 2560 nM and the IC50 [54] was > 2560 nM. The IC50 [55] was > 2560 nM, the IC50 [56] was > 2560 nM and the IC50 [57] was > 2560 nM. For the same compound, the IC50 [58] was > 2560 nM, the IC50 [59] was > 2560 nM and the IC50 [60] was 1730 nM. For the same compound, the IC50 [61] was > 2560 nM and the IC50 [62] was > 2560 nM.
In the case of Fc1cc(-c2cc[nH]/c(=N/c3ccc(-n4cnc(N5CCOCC5)n4)cc3)n2)cc(N2CCOCC2)c1, the IC50 [1] is reported as > 5120 nM, the IC50 [2] is reported as 307 nM and the IC50 [3] is reported as 124 nM. The IC50 [4] was 582 nM, the IC50 [5] was 4240 nM and the IC50 [6] was 1090 nM. The IC50 [7] was 358 nM, the IC50 [8] was 1300 nM and the IC50 [9] was 337 nM. For the same compound, the IC50 [10] was 881 nM, the IC50 [11] was 2410 nM and the IC50 [12] was 1210 nM. For the same compound, the IC50 [13] was > 5120 nM, the IC50 [14] was 2790 nM and the IC50 [15] was > 5120 nM. The IC50 [16] was 1240 nM, the IC50 [17] was 1820 nM and the IC50 [18] was 480 nM. For the same compound, the IC50 [19] was 380 nM, the IC50 [20] was 566 nM and the IC50 [21] was 545 nM. The IC50 [22] was 944 nM, the IC50 [23] was 494 nM and the IC50 [24] was 893 nM. For the same compound, the IC50 [25] was 1270 nM, the IC50 [26] was 574 nM and the IC50 [27] was 669 nM. For the same compound, the IC50 [28] was 253 nM, the IC50 [29] was 378 nM and the IC50 [30] was 4680 nM. For the same compound, the IC50 [31] was > 5120 nM, the IC50 [32] was 334 nM and the IC50 [33] was 1400 nM. For the same compound, the IC50 [34] was 1410 nM, the IC50 [35] was 349 nM and the IC50 [36] was 417 nM. The IC50 [37] was 169 nM, the IC50 [38] was 1880 nM and the IC50 [39] was 2840 nM. For the same compound, the IC50 [40] was 286 nM, the IC50 [41] was 4640 nM and the IC50 [42] was 346 nM. For the same compound, the IC50 [43] was 660 nM, the IC50 [44] was 858 nM and the IC50 [45] was 885 nM. The IC50 [46] was 164 nM, the IC50 [47] was 588 nM and the IC50 [48] was 141 nM. For the same compound, the IC50 [49] was 814 nM, the IC50 [50] was 4220 nM and the IC50 [51] was 355 nM. The IC50 [52] was 826 nM, the IC50 [53] was 531 nM and the IC50 [54] was 1080 nM. The IC50 [55] was > 5120 nM, the IC50 [56] was 410 nM and the IC50 [57] was > 5120 nM. The IC50 [58] was 889 nM, the IC50 [59] was 800 nM and the IC50 [60] was 1330 nM. It also gave an IC50 [61] of 2490 nM and an IC50 [62] of 554 nM.
